According to US20100311677A1, “Active Ingredient Combinations Having Insecticidal and Acaricidal Properties” (Bayer CropScience AG, priority 2007, published 2010):

Assays:
Myzus persicae = Myzus persicae test (Example C), sprayed cabbage leaves; assay type: in vivo; conditions: alone; for pest or weed control at 0.16 g/ha / pest or weed control at 4 g/ha: Myzus persicae, 144 h, read-out: Kill in % after 6d; for pest or weed control at 0.16 g/ha / Kill in % after 6d / pest or weed control at 4 g/ha: after 6 d; for Kill in % after 6d: 0.8 g/ha
Spodoptera frugiperda = Spodoptera frugiperda larvae test (Example F), sprayed cabbage leaves; assay type: in vivo; conditions: alone
Source text: Spodoptera frugiperda Larvae Test

Tetranychus urticae = Tetranychus urticae test (OP-resistant/spray treatment) (Example G), bean leaf disks; assay type: in vivo
Method: Tetranychus urticae Test (OP-Resistant/Spray Treatment)
After the desired period of time, the activity in % is determined.

Phaedon cochleariae = Phaedon cochleariae larvae test (Example E), sprayed cabbage leaves; conditions: for Kill in % after 6d / Kill in % after 2d: alone
Bemisia tabaci = Bemisia tabaci test (Example B), sprayed cotton leaves, larval stages; assay type: in vivo; conditions: 4 g/ha, alone
Nilaparvata lugens = Nilaparvata lugens test (Example D), sprayed rice plants; assay type: in vivo; conditions: 0.8 g/ha, alone
Aphis gossypii = Aphis gossypii test (Example A), sprayed cotton leaves; assay type: in vivo; conditions: 0.16 ppm, alone
[1] = Phaedon cochleariae, in Brassica oleracea, 144 h, read-out: Kill in % after 6d
[2] = Tetranychus urticae, foliar, 144 h, active compound alone, 4 g/ha, after 6 d, read-out: Kill in % after 6 d
[3] = Tetranychus urticae, foliar, 144 h, active compound alone, 20 g/ha, after 6 d, read-out: Kill in % after 6 d

For CC1(C)C(C=C(Cl)Cl)C1C(=O)OC(C#N)c1cccc(Oc2ccccc2)c1 (stereo not drawn) [alpha-cypermethrin (2), alpha-cypermethrin], the pest or weed control at 0.16 g/ha (Myzus persicae) was 0%, the “Kill in % after 2d” value (Spodoptera frugiperda; 0.8 g/ha) was 33% and the pest or weed control at 0.8 g/ha (Tetranychus urticae; Tetranychus urticae, foliar, 144 h, active compound alone, 0.8 g/ha, after 6 d, read-out: Kill in % after 6 d) was 0%. It also gave a pest or weed control at 0.8 g/ha (Phaedon cochleariae; [1]) of 0%.

CC(C)N1C(=O)N(c2ccccc2)CS/C1=N\C(C)(C)C [buprofezin (42), buprofezin] was tested, and the “Kill in % after 10d” value (Bemisia tabaci) was 30%, the “Kill in % after 1d” value (Myzus persicae; 4 g/ha, after 1 d) was 0% and the “Kill in % after 6d” value (Nilaparvata lugens) was 10%. The “Kill in % after 2d” value (Tetranychus urticae; 100 g/ha, alone, after 2 d) was 0% and the pest or weed control at 100 g/ha (Phaedon cochleariae; [1]) was 0%.

In the case of Cc1cc(C(F)(C(F)(F)F)C(F)(F)F)ccc1NC(=O)c1cccc(Cl)c1C(=O)N[C@@H](C)CS(C)(=O)=O [compound (55)], the pest or weed control at 0.16 g/ha (Myzus persicae) is reported as 0%, the pest or weed control at 0.8 g/ha (Spodoptera frugiperda; Spodoptera frugiperda, 144 h, 0.8 g/ha, after 6 d, read-out: Kill in % after 6d) is reported as 50% and the pest or weed control at 4 g/ha (Tetranychus urticae; [2]) is reported as 0%. For the same compound, the pest or weed control at 0.8 g/ha (Phaedon cochleariae; [1]) was 0%.

Cc1cc(C(F)(C(F)(F)F)C(F)(F)F)ccc1NC(=O)c1cccc(I)c1C(=O)NC(C)(C)CS(C)(=O)=O [flubendiamide (54), flubendiamide] was tested, and the “Kill in % after 6d” value (Myzus persicae) was 0%, the “Kill in % after 6d” value (Spodoptera frugiperda; 0.8 g/ha, after 6 d) was 0% and the “Kill in % after 6d” value (Tetranychus urticae; active compound alone, 20 g/ha, after 6 d) was 0%. For the same compound, the “Kill in % after 6d” value (Phaedon cochleariae; 20 g/ha) was 0%.

With CC1(C)[C@H](/C=C(\Cl)C(F)(F)F)[C@@H]1C(=O)O[C@H](C#N)c1cccc(Oc2ccccc2)c1 [gamma-cyhalothrin (12b), gamma-cyhalothrin] the “Kill in % after 6d” value (Aphis gossypii) was 0% and the “Kill in % after 2d” value (Spodoptera frugiperda; 0.032 g/ha) was 5%.

COP(N)(=O)SC (stereo not shown) [methamidophos (113), methamidophos] was tested, and the pest or weed control at 4 g/ha (Myzus persicae; 4 g/ha) was 0%, the “Kill in % after 2d” value (Spodoptera frugiperda; 100 g/ha) was 67% and the pest or weed control at 20 g/ha (Tetranychus urticae; [3]) was 0%. The “Kill in % after 2d” value (Phaedon cochleariae; 100 g/ha) was 0%.

For CCOC(=O)OC1=C(c2cc(C)ccc2C)C(=O)N[C@]12CC[C@@H](OC)CC2 [spirotetramat (98), spirotetramat], the pest or weed control at 20 g/ha (Spodoptera frugiperda; Spodoptera frugiperda, 144 h, 20 g/ha, after 6 d, read-out: Kill in % after 6d) was 0%, the pest or weed control at 4 g/ha (Tetranychus urticae; [2]) was 50% and the pest or weed control at 20 g/ha (Phaedon cochleariae; [1]) was 50%.

In the case of CS/C(C)=N/OC(=O)N(C)SN(C)C(=O)O/N=C(\C)SC [thiodicarb (111), thiodicarb], the pest or weed control at 4 g/ha (Spodoptera frugiperda; Spodoptera frugiperda, 144 h, 4 g/ha, after 6 d, read-out: Kill in % after 6d) is reported as 67%, the pest or weed control at 20 g/ha (Tetranychus urticae; [3]) is reported as 0% and the pest or weed control at 100 g/ha (Phaedon cochleariae; [1]) is reported as 0%.

Work on O=C(NC(=O)c1ccccc1Cl)Nc1ccc(OC(F)(F)F)cc1 [triflumuron (36), triflumuron] yielded a pest or weed control at 4 g/ha (Myzus persicae; 4 g/ha) of 0%, a pest or weed control at 0.16 g/ha (Spodoptera frugiperda; Spodoptera frugiperda, 144 h, 0.16 g/ha, after 6 d, read-out: Kill in % after 6d) of 0% and a pest or weed control at 20 g/ha (Tetranychus urticae; [3]) of 0%. For the same compound, the “Kill in % after 2d” value (Phaedon cochleariae; 20 g/ha) was 17%.

spinosad [spinosad (79)] was tested, and the “Kill in % after 6d” value (Myzus persicae) was 0%, the “Kill in % after 2d” value (Spodoptera frugiperda; 0.8 g/ha) was 0% and the “Kill in % after 6d” value (Tetranychus urticae; active compound alone, 4 g/ha, after 6 d) was 80%. For the same compound, the “Kill in % after 6d” value (Phaedon cochleariae; 0.8 g/ha) was 0%.
